Experimental data reported in ChEMBL document CHEMBL1201862, “PubChem BioAssay data set” (2004).
The source made the active and inactive calls.

Key:
[1] = target: Glucose-6-phosphate 1-dehydrogenase (Homo sapiens, UniProt P11413); experiment: human G6PD enzyme inhibitors, dose response, selectivity assay for P. falciparum G6PD inhibitor project, biochemical, fluorescence (AID 504792); type: functional
Cytochrome P450 2C9 [2] = target: T1, Cytochrome P450 2C9 (Homo sapiens, UniProt P11712)
Cytochrome P450 2D6 = Cytochrome P450 2D6 (Homo sapiens, UniProt P10635);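 also: CYP2D6 member of a cytochrome P450 panel assay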
[3] = A cytotoxicity screen of small molecule inhibitors of the PhoP region in Salmonella typhi identified in the primary screen. [Related pubchem assays: 1850, 1864, 1985 ]; type: functional
[4] = target: Luciferin 4-monooxygenase (Photinus pyralis, UniProt P08659); experiment: Counter Screen for Luciferase-based Assay Positives. [Related pubchem assays: 620, 618, 411 ]
HT-1080 = experiment: cytotoxicity in HT1080 fibrosarcoma cells, cell-based, fluorescence readout (AID 620); type: functional; conditions: Homo sapiens
[5] = target: T2, Sentrin-specific protease 8 (Homo sapiens, UniProt Q96LD8); type: functional
T2 sequence (Q96LD8 whole entry): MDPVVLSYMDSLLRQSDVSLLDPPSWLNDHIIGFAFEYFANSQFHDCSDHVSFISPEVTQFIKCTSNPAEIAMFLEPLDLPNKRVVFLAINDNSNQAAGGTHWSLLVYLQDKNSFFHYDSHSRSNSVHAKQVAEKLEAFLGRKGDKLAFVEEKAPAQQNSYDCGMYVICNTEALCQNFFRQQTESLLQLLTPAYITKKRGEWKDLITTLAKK

Vero = Vero cell cytotoxicity, cytotoxicity control for flavivirus capping enzyme inhibitors (AID 588742); type: functional; conditions: Chlorocebus sabaeus
[6] = target: T2, Sentrin-specific protease 8; type: functional; remark: listed apart in the source
[7] = inhibitors of intracellular T. cruzi replication, confirmation, NIH3T3 host cells, beta-gal luminescence (AID 2044); type: functional, cell-based;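 also: intracellular parasites grown in NIH/3T3 mouse fibroblasts as host cells; luminescent beta-galactosidase reporter signal from transgenic T. cruzi replicating inside host cells; inhibitors lower the luminescence signal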
[8] = cytotoxicity toward NIH3T3 fibroblasts, dose response, counter-screen, cell-based, ATP luminescence, mouse fibroblasts (AID 2010); type: functional;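 also: cells exposed to compound for about 90 hours before reading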
Cytochrome P450 3A4 = Cytochrome P450 3A4 (Homo sapiens, UniProt P08684); conditions: Potency;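 also: confirmatory qHTS run detecting inhibitors and substrates of CYP3A4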
[9] = target: T3, Short transient receptor potential channel 4 (Mus musculus, UniProt Q9QUQ5); experiment: mouse TRPC4 channel activators, dose response, cell-based, HEK293 TRPC4/mu-opioid, Fluo-4 calcium (AID 434937); type: functional
T3 sequence (Q9QUQ5 whole entry): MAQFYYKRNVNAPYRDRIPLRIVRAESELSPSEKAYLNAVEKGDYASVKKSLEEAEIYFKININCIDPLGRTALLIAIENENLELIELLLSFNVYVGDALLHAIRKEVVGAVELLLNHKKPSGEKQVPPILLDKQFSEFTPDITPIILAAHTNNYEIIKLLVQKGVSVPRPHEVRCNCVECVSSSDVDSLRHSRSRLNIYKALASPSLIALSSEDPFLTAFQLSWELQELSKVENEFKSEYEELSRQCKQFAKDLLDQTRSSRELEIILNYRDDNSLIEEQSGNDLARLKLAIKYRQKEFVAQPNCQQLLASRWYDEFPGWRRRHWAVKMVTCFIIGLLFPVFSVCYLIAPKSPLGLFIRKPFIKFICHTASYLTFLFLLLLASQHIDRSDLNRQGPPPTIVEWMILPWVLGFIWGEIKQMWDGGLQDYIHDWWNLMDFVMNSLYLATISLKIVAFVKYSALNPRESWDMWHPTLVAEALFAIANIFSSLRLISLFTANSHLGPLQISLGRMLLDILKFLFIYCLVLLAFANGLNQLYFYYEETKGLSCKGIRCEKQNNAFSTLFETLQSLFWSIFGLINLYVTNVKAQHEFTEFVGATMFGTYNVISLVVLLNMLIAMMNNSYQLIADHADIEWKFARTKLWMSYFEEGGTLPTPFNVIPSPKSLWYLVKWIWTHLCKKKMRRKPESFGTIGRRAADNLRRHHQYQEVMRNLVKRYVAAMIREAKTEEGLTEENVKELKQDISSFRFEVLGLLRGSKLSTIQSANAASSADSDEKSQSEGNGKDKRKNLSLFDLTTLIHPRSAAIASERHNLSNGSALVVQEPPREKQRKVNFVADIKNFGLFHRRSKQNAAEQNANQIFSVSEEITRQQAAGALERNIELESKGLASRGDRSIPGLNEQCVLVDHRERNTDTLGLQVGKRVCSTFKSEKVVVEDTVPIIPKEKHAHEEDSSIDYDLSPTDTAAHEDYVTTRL

[10] = target: T3, Short transient receptor potential channel 4; experiment: mouse TRPC4 channel inhibitors, dose response, cell-based, HEK293 TRPC4/mu-opioid, Fluo-4 calcium (AID 434942); type: functional;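 also: potency of inhibitors blocking the TRPC4 calcium response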
Escherichia coli = experiment: microbe, parasite or virus in culture
[11] = target: Glyceraldehyde-3-phosphate dehydrogenase (Homo sapiens, UniProt P04406)
HEK293 = experiment: inhibitors of LMP1-driven NF-kB reporter, dose response, cell-based, HEK293, luciferase, cherry-pick (AID 588343); type: functional; conditions: Homo sapiens
[12] = Luminescence Cell-Based Dose Response HTS to Identify Inhibitors of 5'UTR Stem-Loop Driven Prion Protein mRNA Translation in H4 Neuroglioblastoma Cells. [Related pubchem assays: 1827 (Project Summary), 1813 (Primary HTS)]; type: functional
[13] = inhibitors of SNCA 5'UTR-driven reporter translation, confirmation, H4 neuroglioma cells, luminescence (AID 1988); type: functional, cell-based
[14] = inhibitors of firefly luciferase expression or activity, dose response, H4 neuroglioma cells, luminescence (AID 1990); type: functional, cell-based
Cytochrome P450 2C9 [15] = target: T1, Cytochrome P450 2C9; remark: listed apart in the source
Coagulation factor XII = target: T4, Coagulation factor XII (Homo sapiens, UniProt P00748); type: functional;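 also: activated factor XIIa alpha cleaving a fluorogenic AMC peptide substrate; inhibitor potency from loss of enzyme activity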
T4 sequence (P00748 whole entry): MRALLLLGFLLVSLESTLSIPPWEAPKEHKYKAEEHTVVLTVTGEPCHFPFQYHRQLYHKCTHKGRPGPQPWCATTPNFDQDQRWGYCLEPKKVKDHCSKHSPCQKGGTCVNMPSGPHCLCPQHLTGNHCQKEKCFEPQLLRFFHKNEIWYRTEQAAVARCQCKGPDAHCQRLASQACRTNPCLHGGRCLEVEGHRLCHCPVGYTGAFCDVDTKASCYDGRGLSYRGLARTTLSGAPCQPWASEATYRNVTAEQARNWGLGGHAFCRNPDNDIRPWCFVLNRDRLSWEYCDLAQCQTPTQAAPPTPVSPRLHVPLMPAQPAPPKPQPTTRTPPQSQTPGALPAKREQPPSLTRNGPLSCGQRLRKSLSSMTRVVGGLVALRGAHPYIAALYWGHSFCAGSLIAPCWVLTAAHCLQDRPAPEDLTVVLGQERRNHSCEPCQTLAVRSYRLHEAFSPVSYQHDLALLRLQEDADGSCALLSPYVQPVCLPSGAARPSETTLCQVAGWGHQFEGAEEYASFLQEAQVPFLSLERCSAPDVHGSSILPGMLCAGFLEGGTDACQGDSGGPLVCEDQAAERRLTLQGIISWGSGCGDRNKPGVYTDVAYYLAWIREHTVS

Prothrombin = Prothrombin (Homo sapiens, UniProt P00734); experiment: Thrombin 1536 HTS Dose Response Confirmation. [Related pubchem assays: 1046 (Thrombin 1536 HTS; hits were confirmed in this assay)]; type: functional

Sequence of Glucose-6-phosphate 1-dehydrogenase (P11413 whole entry): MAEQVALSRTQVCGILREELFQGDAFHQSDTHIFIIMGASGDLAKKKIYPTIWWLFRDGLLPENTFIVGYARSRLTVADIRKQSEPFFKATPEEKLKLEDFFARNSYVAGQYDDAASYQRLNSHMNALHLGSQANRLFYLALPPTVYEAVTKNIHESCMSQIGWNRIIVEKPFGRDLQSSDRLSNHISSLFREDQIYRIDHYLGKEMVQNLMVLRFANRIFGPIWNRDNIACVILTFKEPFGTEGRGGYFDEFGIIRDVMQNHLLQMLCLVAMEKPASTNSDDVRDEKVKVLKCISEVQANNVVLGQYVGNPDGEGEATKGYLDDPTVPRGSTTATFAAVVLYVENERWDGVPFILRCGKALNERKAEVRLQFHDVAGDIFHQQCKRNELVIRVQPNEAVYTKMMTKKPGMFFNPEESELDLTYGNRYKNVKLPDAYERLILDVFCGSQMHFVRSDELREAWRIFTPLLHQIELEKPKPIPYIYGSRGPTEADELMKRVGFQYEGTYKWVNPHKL
Sequence of Cytochrome P450 3A4 (P08684 whole entry): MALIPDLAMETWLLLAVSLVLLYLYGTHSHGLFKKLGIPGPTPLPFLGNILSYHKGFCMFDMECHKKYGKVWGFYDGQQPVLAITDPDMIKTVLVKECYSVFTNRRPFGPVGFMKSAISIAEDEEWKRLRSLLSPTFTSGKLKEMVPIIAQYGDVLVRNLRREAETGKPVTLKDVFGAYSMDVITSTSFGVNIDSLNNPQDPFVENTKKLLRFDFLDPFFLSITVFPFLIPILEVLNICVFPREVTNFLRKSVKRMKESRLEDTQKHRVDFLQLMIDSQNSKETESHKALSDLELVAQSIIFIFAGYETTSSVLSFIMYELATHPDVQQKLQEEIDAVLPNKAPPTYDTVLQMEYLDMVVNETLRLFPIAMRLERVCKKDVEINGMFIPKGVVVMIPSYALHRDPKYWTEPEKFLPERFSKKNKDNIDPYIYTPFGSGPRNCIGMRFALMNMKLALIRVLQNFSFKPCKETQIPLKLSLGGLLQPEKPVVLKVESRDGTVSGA
Sequence of Luciferin 4-monooxygenase (P08659 whole entry): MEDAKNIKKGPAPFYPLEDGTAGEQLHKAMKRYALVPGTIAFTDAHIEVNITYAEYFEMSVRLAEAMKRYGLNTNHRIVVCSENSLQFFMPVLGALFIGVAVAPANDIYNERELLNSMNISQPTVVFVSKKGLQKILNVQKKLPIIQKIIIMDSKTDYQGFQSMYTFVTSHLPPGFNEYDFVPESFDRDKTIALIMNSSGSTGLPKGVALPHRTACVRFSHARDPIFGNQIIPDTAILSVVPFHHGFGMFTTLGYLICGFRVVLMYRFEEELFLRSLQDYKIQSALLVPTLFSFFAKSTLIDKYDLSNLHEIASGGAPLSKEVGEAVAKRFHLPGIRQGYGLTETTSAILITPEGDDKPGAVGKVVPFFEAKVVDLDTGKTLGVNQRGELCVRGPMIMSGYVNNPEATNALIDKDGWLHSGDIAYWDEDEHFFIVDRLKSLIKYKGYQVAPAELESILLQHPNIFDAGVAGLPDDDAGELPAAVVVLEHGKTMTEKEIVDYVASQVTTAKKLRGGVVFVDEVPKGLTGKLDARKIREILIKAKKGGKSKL
T1 sequence (P11712 whole entry): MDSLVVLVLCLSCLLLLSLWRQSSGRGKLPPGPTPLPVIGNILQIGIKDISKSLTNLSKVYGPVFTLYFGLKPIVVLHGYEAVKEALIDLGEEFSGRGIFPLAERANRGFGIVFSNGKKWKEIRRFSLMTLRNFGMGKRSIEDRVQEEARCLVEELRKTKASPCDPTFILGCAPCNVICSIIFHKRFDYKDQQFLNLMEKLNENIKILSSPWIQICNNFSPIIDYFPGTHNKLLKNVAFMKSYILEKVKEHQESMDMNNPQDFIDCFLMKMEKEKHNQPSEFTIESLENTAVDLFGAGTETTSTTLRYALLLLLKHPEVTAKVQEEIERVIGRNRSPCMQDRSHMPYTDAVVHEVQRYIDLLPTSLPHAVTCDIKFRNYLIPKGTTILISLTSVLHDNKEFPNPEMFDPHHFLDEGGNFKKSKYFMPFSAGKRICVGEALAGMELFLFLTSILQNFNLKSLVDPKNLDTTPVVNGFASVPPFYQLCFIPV
Sequence of Cytochrome P450 2D6 (P10635 whole entry): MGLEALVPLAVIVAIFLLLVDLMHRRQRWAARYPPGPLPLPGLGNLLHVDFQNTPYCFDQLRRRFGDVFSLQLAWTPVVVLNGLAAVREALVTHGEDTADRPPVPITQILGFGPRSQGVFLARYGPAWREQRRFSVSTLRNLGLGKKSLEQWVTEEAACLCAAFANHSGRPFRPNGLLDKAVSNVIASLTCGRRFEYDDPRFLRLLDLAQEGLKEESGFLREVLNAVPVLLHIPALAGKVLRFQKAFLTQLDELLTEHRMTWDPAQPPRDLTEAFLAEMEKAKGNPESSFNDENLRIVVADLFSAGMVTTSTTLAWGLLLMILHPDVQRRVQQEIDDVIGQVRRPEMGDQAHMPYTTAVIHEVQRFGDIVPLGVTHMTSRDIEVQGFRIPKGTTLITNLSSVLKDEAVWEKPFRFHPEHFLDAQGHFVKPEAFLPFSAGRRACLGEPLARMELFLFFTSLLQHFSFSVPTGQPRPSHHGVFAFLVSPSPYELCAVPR
Sequence of Glyceraldehyde-3-phosphate dehydrogenase (P04406 whole entry): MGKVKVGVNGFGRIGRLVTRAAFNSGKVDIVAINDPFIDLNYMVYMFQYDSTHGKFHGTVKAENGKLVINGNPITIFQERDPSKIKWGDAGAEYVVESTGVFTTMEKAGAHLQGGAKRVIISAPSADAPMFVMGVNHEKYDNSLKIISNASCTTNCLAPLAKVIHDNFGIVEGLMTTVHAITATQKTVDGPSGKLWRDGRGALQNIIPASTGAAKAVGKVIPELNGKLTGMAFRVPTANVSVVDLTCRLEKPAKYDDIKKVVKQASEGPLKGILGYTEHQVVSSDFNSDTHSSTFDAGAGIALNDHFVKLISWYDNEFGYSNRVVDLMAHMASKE

Cc1ccc(NS(=O)(=O)c2ccccc2Cl)c2c1CC(C)(C)O2
IC50 [1]: > 80 µM (inactive)
AC50 (Cytochrome P450 2C9 [2]): inconclusive
AC50 (Cytochrome P450 2D6): 15.8 µM (inconclusive)

COc1ccccc1-c1cc2nc(C)c(CCC(=O)NC(C)CCc3ccco3)c(C)n2n1 (stereo not drawn)
EC50 [3]: > 50 µM (active)

Cc1ccc(CNc2nc3ccccc3s2)s1
EC50 [4]: 14.4 µM (active)
EC50 (HT-1080): > 50 µM (not active)

Cc1cc(Cl)ccc1OCCCC(=O)N1CCCc2ccccc21
EC50 [3]: > 50 µM (active)

COc1ccc(C(=O)c2c3ccc([N+](=O)[O-])cc3[n+]([O-])n2CCCN)cc1
IC50 [5]: 9.21 µM (active)
CC50 (Vero): 30.6 µM (active)
IC50 [6]: 14.4 µM (active)

CCn1cc(/C=C/C(=O)Nc2ccn(Cc3c(F)c(F)cc(F)c3F)n2)cn1
IC50 [5]: 9.64 µM (active)
IC50 [6]: 28.9 µM (active)

CC(C)c1ccc2oc(-c3ccc(N)cc3)nc2c1
EC50 [4]: 12.3 µM (active)
EC50 (HT-1080): > 50 µM (not active)

O=C(NCC(c1cccnc1)N1CCN(c2ccc(F)cc2)CC1)OCc1ccccc1 (stereo not drawn)
EC50 [7]: < 0.1 µM (active)
EC50 [8]: > 60 µM (not active)
EC50 (cells): 0.089 µM (active)

CCN1CCCC1CNC(=O)c1cc2cc(F)ccc2[nH]1 (stereo not drawn)
EC50 [3]: > 50 µM (active)

OC1CCN(Cc2ccc(OCc3ccccc3)cc2)CC1
EC50 [7]: < 0.1 µM (active)
EC50 [8]: > 60 µM (not active)
EC50 (cells): 0.207 µM (active)

CCCCCCC(=O)N(O)C1CC(=O)N(Cc2ccccc2)C1=O (stereo not drawn)
EC50 [3]: > 50 µM (active)

CC1(C)CC[C@]2(C(=O)O)C(O)C[C@@]3(C)C(=CCC4[C@@]5(C)CCC(O)C(C)(C)C5CC[C@@]43C)C2C1 (stereo partly drawn)
AC50 (Cytochrome P450 3A4): 15.8 µM (inconclusive)

CCOC(=O)c1ccc(NC(=O)CN2CCc3ccccc3C2)cc1
IC50 [5]: 21.6 µM (active)
IC50 [6]: > 100 µM (inactive)

CCOc1ccc(OCc2ccc(C(=O)O)o2)cc1
EC50 [4]: 0.36 µM (active)
EC50 (HT-1080): > 50 µM (not active)

O=C(Nc1ccccc1)Oc1cccnc1O
EC50 [3]: > 50 µM (active)

CN(C)CCCN(C(=O)c1ccc(S(=O)(=O)N(C)C)cc1)c1nc2ccc(F)cc2s1
EC50 [7]: < 0.1 µM (active)
EC50 [8]: > 60 µM (not active)
EC50 [9]: 9.44 µM (active)
EC50 [10]: 5.96 µM (active)
EC50 (cells): 0.012 µM (active)

COc1ccccc1NS(=O)(=O)c1cccc(NC2=NC(=N)c3ccccc32)c1
AC50 (Escherichia coli): 99.5 µM (active)

COC(=O)C1(S(=O)(=O)C2(C(=O)OC)CCCC2)CCCC1
AC50 (Escherichia coli): > 150 µM (inactive)

CC(C)Sc1nc2c(c(=O)[nH]c(=O)n2C)n1CCc1ccccc1
AC50 (Escherichia coli): 33.2 µM (active)

CCCn1c(-c2ccc(F)cc2)nc2c(NCC3CCCN3CC)nc(C)nc21 (stereo not drawn)
AC50 (Cytochrome P450 3A4): 15.8 µM (inconclusive)

CC(=O)OC1CC2C(C)(C)C(O)CCC2(C)C2CC[C@]3(C)C(=CC(=O)OC3c3ccoc3)C12C (stereo partly drawn)
AC50 (Cytochrome P450 3A4): 39.8 µM (inconclusive)

O=C(Nc1ccccc1)C12CC3CC(C1)CC(n1cnc([N+](=O)[O-])n1)(C3)C2
EC50 [7]: < 0.1 µM (active)
EC50 [8]: > 60 µM (not active)
EC50 (cells): 0.06 µM (active)

COc1ccc(NC(=O)c2cc(Br)c(Br)s2)cn1
EC50 [3]: > 50 µM (active)

COc1ccc(CCn2c(NN)nc3c2c(=O)[nH]c(=O)n3C)cc1
IC50 [1]: 50.2 µM (inactive)

O=C(O)c1cccc(C(=O)Nc2cccc(NC(=O)C3CCCO3)c2)c1 (stereo not drawn)
EC50 [4]: 56.3 µM (active)
IC50 [11]: > 100 µM (not active)
EC50 (HT-1080): > 50 µM (not active)

COc1ccccc1NC(=O)CN1CCN(c2ccccc2)CC1
EC50 [3]: > 50 µM (active)

Clc1ccc2nc(-c3ccc4c(c3)OCO4)cn2c1
IC50 [1]: > 80 µM (inactive)
AC50 (HEK293): 4.13 µM (active)

C[N+]1(C)CCC(=C2c3ccccc3CC(=O)c3sccc32)CC1
IC50 [5]: 12.6 µM (active)
IC50 [6]: 30.4 µM (active)

CC(=O)N(Cc1ccc(F)cc1)c1cccc(C)c1C
AC50 (Escherichia coli): 23.7 µM (active)

Cn1c(-c2ccccc2)cnc1SCC(=O)N1CCCCC1
EC50 [12]: 5.72 µM (active)
EC50 [13]: 3.2 µM (active)
EC50 [4]: 22.8 µM (active)
EC50 [14]: 8.1 µM (inconclusive)
EC50 (HT-1080): > 50 µM (not active)
AC50 (HEK293): 2.47 µM (active)

COc1cccc(C(=O)Nc2nnc(C(C)C)s2)c1
IC50 [1]: 52.7 µM (inactive)

Cc1ccccc1NC1=NC(=S)N(c2ccccc2)C12CCOC(C)(C)C2 (stereo not drawn)
AC50 (Escherichia coli): 22.6 µM (active)
AC50 (Cytochrome P450 2C9 [15]): 11.2 µM (inconclusive)

Cc1ccc2c(c1)C1CN(C)CCC1N2C(=O)c1ccc(Cl)c(S(=O)(=O)N2CCOCC2)c1 (stereo not drawn)
EC50 [7]: < 0.1 µM (active)
EC50 [8]: > 60 µM (not active)
EC50 (cells): 0.199 µM (active)

NS(=O)(=O)c1ccc(CCNC(=O)Cc2ccccc2[N+](=O)[O-])cc1
IC50 (Coagulation factor XII): > 50 µM (inactive)
IC50 (Prothrombin): > 50 µM (not active)

COc1ccc(CCn2c(NN=C(C)C)nc3c2c(=O)[nH]c(=O)n3C)cc1
IC50 [1]: 77.8 µM (inactive)

O=C(CSc1cccc[n+]1[O-])Nc1ccccc1C(F)(F)F
AC50 (Escherichia coli): 48.6 µM (active)

CCC(CC)C(=O)N(C)c1c(C)nc2c(OCC=C(C)C)cccn12
IC50 [5]: 33.4 µM (active)
IC50 [6]: > 100 µM (inactive)

O=C(/C=C(\O)c1ccccc1)c1ccccc1O [2',beta-DIHYDROXYCHALCONE]
AC50 (Cytochrome P450 3A4): 15.8 µM (inconclusive)

COc1ccc(C2CC(=O)c3ccc(OC)cc3O2)cc1 (stereo not drawn) [LIQUIRITIGENIN DIMETHYL ETHER]
AC50 (Cytochrome P450 3A4): 20 µM (inconclusive)

CC1=C(/C=C/C(C)=C/C=C/C(C)=C/C=O)C(C)(C)CCC1 [RETINAL]
AC50 (Cytochrome P450 3A4): 12.6 µM (inconclusive)
